Measured values: patent publication US6362212B1, “Oxime derivative and bactericide containing the same as active ingredient” (Shionogi & Company, Ltd., priority 1994, dated 2002)

What was measured:
Type in all cases: in vivo
[1] = system: Pseudoperonospora cubensis; experiment: Controlling effect on Pseudoperonospora cubensis by foliage application (pot experiment); details: foliage spray on cucumber (var. TSUKUBASHIROIBO) first leaves, lesion area after 10 days in moist chamber at 20° C.
Procedure: The following Test Examples illustrate the effects of the fungicide of the present invention. (I. Controlling effects on various plant diseases by foliage application (pot experiment)) A test compound was dissolved in a small amount of N,N-dimethylformamide, and the solution was diluted to a given concentration with distilled water containing a spreader. Thus, a liquid sample to be tested was prepared. The liquid sample was sprayed to test plants, and 24 hours thereafter, pathogens were inoculated by the method described below. […] The seeds of cucumber (var.: […]) were sown in plastic cups (each 9 cm in diameter), followed by cultivation for 2 to 3 weeks. The test compound in the form of a solution or suspension was sprayed to the surface of their first leaves, and a zoosporangia suspension of Pseudoperonospora cubensis cultured on cucumber leaves was dropped on the above leaf surfaces to inoculate the test plants with the pathogen. After the inoculation, the plants were kept in a moist chamber at 20° C. for 10 days. Then, the area of the lesions around the inoculum were observed and the percent control was calculated.

Pyricularia oryzae = details: foliage spray on rice seedlings (cv. […]), number of lesions six days after the inoculation
[2] = system: Erysiphe graminis f. sp. tritici; experiment: Controlling effect on Erysiphe graminis f. sp. tritici by foliage application (pot experiment); details: foliage spray on wheat (cv. NORIN No. 61) seedlings, infected area after 10 days in greenhouse at 20° C.; for pest or weed control at 500 ppm: Blumeria graminis, foliar, 240 h, read-out: Controlling effect on ErYsiphe graminis f. sp. tritici by foliage application at 500 ppm (percent control)
In short: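 Wheat seedlings (cv. NORIN No. 61, 2-3 weeks old) sprayed with compound in DMF diluted in water with spreader, then inoculated with conidia 24 hours later. Kept in greenhouse at 20 °C for 10 days; percent control calculated from infected leaf area.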

Sphaerotheca fuliginea = experiment: Controlling effect on Sphaerotheca fuliginea by foliage application (pot experiment); details: foliage spray on cucumber (cv. TSUKUBASHIROIBO) first leaves, infected area after 10 days in greenhouse at 20° C.; for pest or weed control at 500 ppm: Podosphaera fuliginea, in Cucumis sativus, foliar, 240 h, read-out: Controlling effect on Sphaerotheca fuliginea by foliage application at 500 ppm (percent control)
In short: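 First leaves of cucumber seedlings, 2-3 weeks old, were sprayed with compound (DMF solution diluted in water with spreader). They were inoculated 24 h later with a Sphaerotheca fuliginea conidia spray and kept 10 days at 20° C in a greenhouse. Percent control was calculated from infected leaf area.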

| Structure (SMILES) | Controlling effect on Pseudoperonospora cubensis by foliage application at 500 ppm (percent control) [1] [percent control] | Controlling effect on PYricularia orYzae by foliage application at 500 ppm (percent control) (Pyricularia oryzae) | Controlling effect on ErYsiphe graminis f. sp. tritici by foliage application at 500 ppm (percent control) [2] [percent control] | Controlling effect on Sphaerotheca fuliginea by foliage application at 500 ppm (percent control) (Sphaerotheca fuliginea) | pest or weed control at 500 ppm [2] [%] | pest or weed control at 500 ppm (Sphaerotheca fuliginea) [%] |
| --- | --- | --- | --- | --- | --- | --- |
| CON=C(c1ccon1)c1ccccc1COc1ccccc1Cl (mixture of isomers) [compound 305] | 100 | 70 | 90 | 100 | – | – |
| CON=C(c1ccon1)c1ccccc1COc1cccc(Cl)c1 (mixture of isomers) [compound 306] | 100 | 70 | 70 | 97 | – | – |
| CON=C(c1ccon1)c1ccccc1COc1cccc(C)c1 (mixture of isomers) [compound 313] | 100 | 90 | 70 | 100 | – | – |
| CON=C(c1ccccc1COc1ccccc1Cl)c1nccn1C (single isomer, unassigned) [105A] | 100 | 97 | 70 | 100 | – | – |
| CON=C(c1ccccc1COc1cccc(C)c1)c1nccn1C (single isomer, unassigned) [113A] | 100 | 97 | 90 | 100 | – | – |
| CON=C(c1ccccc1COc1cc(Cl)ccc1Cl)c1nccn1C (single isomer, unassigned) [131A] | 100 | 90 | 90 | 100 | – | – |
| CON=C(c1ccccc1COc1cccc(C(C)C)c1)c1nccn1C (single isomer, unassigned) [146A] | 100 | 97 | – | 97 | – | – |
| CON=C(c1ccno1)c1ccccc1COc1ccccc1C (single isomer, unassigned) [512A] | 100 | 90 | 97 | 100 | – | – |
| CON=C(c1ccno1)c1ccccc1COc1ccccc1C (single isomer, unassigned) [512B] | 100 | 97 | 97 | 100 | – | – |
| CON=C(c1ccno1)c1ccccc1COc1ccc(Cl)cc1C (single isomer, unassigned) [541B] | 100 | 70 | 90 | 100 | – | – |
| CON=C(c1cc(C)no1)c1ccccc1COc1ccccc1C (single isomer, unassigned) [612B] | 100 | – | 100 | 100 | – | – |
| CON=C(c1cc(C)no1)c1ccccc1COc1cccc(C)c1 (single isomer, unassigned) [613A] | 70 | 70 | 90 | 100 | – | – |
| CON=C(c1cc(C)no1)c1ccccc1COc1cccc(C)c1 (single isomer, unassigned) [613B] | 100 | – | 70 | 100 | – | – |
| CON=C(c1cc(C)no1)c1ccccc1COc1ccc(C)cc1 (single isomer, unassigned) [614B] | 100 | 70 | 70 | 97 | – | – |
| CON=C(c1cc(C)no1)c1ccccc1COc1ccc(Cl)cc1C (single isomer, unassigned) [641A] | 100 | 70 | 90 | 100 | – | – |
| CON=C(c1cc(C)no1)c1ccccc1COc1ncc(C(F)(F)F)cc1Cl (single isomer, unassigned) [690A, 2-(3-chloro-5-trifluoromethyl-2-pyridyloxymethyl)phenyl 3-methylisoxazol-5-yl ketone O-methyloxime] | 100 | 97 | – | – | 100 | 100 |
| CON=C(c1ccccc1ON=C(C)c1cccc(C(F)(F)F)c1)C1NCCS1 (stereo not drawn) [Compound No. 2799, 2-[(α-methyl-3-trifluoromethylbenzylidene)aminooxy]phenyl thiazolidin-2-yl ketone O-methyloxime] | 95 | 100 | – | – | 97 | 100 |
| CON=C(c1nnco1)c1ccccc1COc1ccccc1Cl [compound 705] | 100 | 70 | – | 97 | – | – |
